{"source": "PubChem BioAssay (NCI)", "test_in_all_cases": "NCI tumour cell line growth inhibition, 48 h", "key": {"[1]": {"system": "TK-10 renal"}, "[2]": {"system": "U251 CNS"}, "[3]": {"system": "HCC-2998 colon"}, "[4]": {"system": "DU-145 prostate"}, "[5]": {"system": "786-0 renal"}, "[6]": {"system": "KM12 colon"}, "[7]": {"system": "HOP-92 NSCLC"}, "[8]": {"system": "HCT-116 colon"}, "[9]": {"system": "BT-549 breast"}, "[10]": {"system": "CCRF-CEM leukemia"}, "[11]": {"system": "MDA-N"}, "[12]": {"system": "HT29 colon"}, "[13]": {"system": "ACHN renal"}, "[14]": {"system": "MOLT-4 leukemia"}, "[15]": {"system": "PC-3 prostate"}, "[16]": {"system": "OVCAR-3 ovarian"}, "[17]": {"system": "K-562 leukemia"}, "[18]": {"system": "HL-60(TB) leukemia"}, "[19]": {"system": "MDA-MB-435"}, "[20]": {"system": "UO-31 renal"}, "[21]": {"system": "SNB-19 CNS"}, "[22]": {"system": "SF-268 CNS"}, "[23]": {"system": "SK-MEL-2 melanoma"}, "[24]": {"system": "MDA-MB-231 breast"}, "[25]": {"system": "MALME-3M melanoma"}, "[26]": {"system": "A549 NSCLC"}, "[27]": {"system": "RPMI-8226 leukemia"}, "[28]": {"system": "OVCAR-5 ovarian"}, "[29]": {"system": "SNB-75 CNS"}, "[30]": {"system": "SK-MEL-28 melanoma"}, "[31]": {"system": "SK-MEL-5 melanoma"}, "[32]": {"system": "M14 melanoma"}, "[33]": {"system": "NCI-H23 lung"}, "[34]": {"system": "OVCAR-4 ovarian"}, "[35]": {"system": "HCT-15 colon"}, "[36]": {"system": "NCI-H226 lung"}, "[37]": {"system": "SK-OV-3 ovarian"}, "[38]": {"system": "LOX IMVI melanoma"}, "[39]": {"system": "SF-295 CNS"}, "[40]": {"system": "NCI-H460 lung"}, "[41]": {"system": "IGROV1 ovarian"}, "[42]": {"system": "NCI/ADR-RES ovarian"}, "[43]": {"system": "SW-620 colon"}, "[44]": {"system": "CAKI-1 renal"}, "[45]": {"system": "MCF7 breast"}, "[46]": {"system": "UACC-62 melanoma"}, "[47]": {"system": "EKVX NSCLC"}, "[48]": {"system": "OVCAR-8 ovarian"}, "[49]": {"system": "A498 renal"}, "[50]": {"system": "RXF 393 renal"}, "[51]": {"system": "NCI-H522 lung"}, "[52]": {"system": "UACC-257 melanoma"}, "[53]": {"system": "COLO 205 colon"}, "[54]": {"system": "SF-539 CNS"}, "[55]": {"system": "SN12C renal"}}, "note": "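Method: 48-hour compound exposure of cells in 96-well plates, five concentrations, linear interpolation of endpoints. TGI denotes the concentration required for complete inhibition of growth.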", "data": [{"molecule": "CN(C)CCOc1ccc2[nH]c(C(=O)N3CC(CCl)c4c3cc(N)c3ccccc43)cc2c1", "note": "(stereo not given)", "values": [{"measurement": "TGI", "setting": "[1]", "result": "> 4.64", "unit": "µM"}, {"measurement": "TGI", "setting": "[2]", "result": 1.1, "unit": "µM"}, {"measurement": "TGI", "setting": "[3]", "result": "< 0.01", "unit": "µM"}, {"measurement": "TGI", "setting": "[4]", "result": 0.0525, "unit": "µM"}, {"measurement": "TGI", "setting": "[5]", "result": "< 0.01", "unit": "µM"}, {"measurement": "TGI", "setting": "[6]", "result": "< 0.01", "unit": "µM"}, {"measurement": "TGI", "setting": "[7]", "result": "< 0.01", "unit": "µM"}, {"measurement": "TGI", "setting": "[8]", "result": 3.63, "unit": "µM"}, {"measurement": "TGI", "setting": "[9]", "result": 1.64, "unit": "µM"}, {"measurement": "TGI", "setting": "[10]", "result": "> 100", "unit": "µM"}, {"measurement": "TGI", "setting": "[11]", "result": "< 0.01", "unit": "µM"}, {"measurement": "TGI", "setting": "[12]", "result": 1.71, "unit": "µM"}, {"measurement": "TGI", "setting": "[13]", "result": "< 0.01", "unit": "µM"}, {"measurement": "TGI", "setting": "[14]", "result": "< 0.01", "unit": "µM"}, {"measurement": "TGI", "setting": "[15]", "result": 3.66, "unit": "µM"}, {"measurement": "TGI", "setting": "[16]", "result": "< 0.01", "unit": "µM"}, {"measurement": "TGI", "setting": "[17]", "result": "> 4.64", "unit": "µM"}, {"measurement": "TGI", "setting": "[18]", "result": "> 100", "unit": "µM"}, {"measurement": "TGI", "setting": "[19]", "result": "< 0.01", "unit": "µM"}, {"measurement": "TGI", "setting": "[20]", "result": "< 0.01", "unit": "µM"}, {"measurement": "TGI", "setting": "[21]", "result": 0.202, "unit": "µM"}, {"measurement": "TGI", "setting": "[22]", "result": "> 4.64", "unit": "µM"}, {"measurement": "TGI", "setting": "[23]", "result": "< 0.01", "unit": "µM"}, {"measurement": "TGI", "setting": "[24]", "result": "> 100", "unit": "µM"}, {"measurement": "TGI", "setting": "[25]", "result": "< 0.01", "unit": "µM"}, {"measurement": "TGI", "setting": "[26]", "result": 13.2, "unit": "µM"}, {"measurement": "TGI", "setting": "[27]", "result": "< 0.01", "unit": "µM"}, {"measurement": "TGI", "setting": "[28]", "result": "> 100", "unit": "µM"}, {"measurement": "TGI", "setting": "[29]", "result": "< 0.215", "unit": "µM"}, {"measurement": "TGI", "setting": "[30]", "result": "< 0.01", "unit": "µM"}, {"measurement": "TGI", "setting": "[31]", "result": "< 0.01", "unit": "µM"}, {"measurement": "TGI", "setting": "[32]", "result": "> 100", "unit": "µM"}, {"measurement": "TGI", "setting": "[33]", "result": "< 0.01", "unit": "µM"}, {"measurement": "TGI", "setting": "[34]", "result": 1.18, "unit": "µM"}, {"measurement": "TGI", "setting": "[35]", "result": "> 46.9", "unit": "µM"}, {"measurement": "TGI", "setting": "[36]", "result": "< 0.01", "unit": "µM"}, {"measurement": "TGI", "setting": "[37]", "result": "< 0.01", "unit": "µM"}]}, {"molecule": "CCOc1ccc2nc(-c3ccc(O)cc3)sc2c1", "values": [{"measurement": "TGI", "setting": "[38]", "result": "> 100", "unit": "µM"}, {"measurement": "TGI", "setting": "[1]", "result": "> 100", "unit": "µM"}, {"measurement": "TGI", "setting": "[2]", "result": "> 100", "unit": "µM"}, {"measurement": "TGI", "setting": "[4]", "result": "> 100", "unit": "µM"}, {"measurement": "TGI", "setting": "[6]", "result": "> 100", "unit": "µM"}, {"measurement": "TGI", "setting": "[39]", "result": 61.6, "unit": "µM"}, {"measurement": "TGI", "setting": "[40]", "result": "> 100", "unit": "µM"}, {"measurement": "TGI", "setting": "[41]", "result": "> 100", "unit": "µM"}, {"measurement": "TGI", "setting": "[8]", "result": "> 100", "unit": "µM"}, {"measurement": "TGI", "setting": "[9]", "result": "> 100", "unit": "µM"}, {"measurement": "TGI", "setting": "[11]", "result": "> 100", "unit": "µM"}, {"measurement": "TGI", "setting": "[42]", "result": "> 100", "unit": "µM"}, {"measurement": "TGI", "setting": "[12]", "result": "> 100", "unit": "µM"}, {"measurement": "TGI", "setting": "[43]", "result": "> 100", "unit": "µM"}, {"measurement": "TGI", "setting": "[13]", "result": "> 100", "unit": "µM"}, {"measurement": "TGI", "setting": "[44]", "result": "> 100", "unit": "µM"}, {"measurement": "TGI", "setting": "[14]", "result": "> 100", "unit": "µM"}, {"measurement": "TGI", "setting": "[15]", "result": "> 100", "unit": "µM"}, {"measurement": "TGI", "setting": "[16]", "result": "> 100", "unit": "µM"}, {"measurement": "TGI", "setting": "[17]", "result": "> 100", "unit": "µM"}, {"measurement": "TGI", "setting": "[18]", "result": 8.81, "unit": "µM"}, {"measurement": "TGI", "setting": "[45]", "result": "> 100", "unit": "µM"}, {"measurement": "TGI", "setting": "[19]", "result": "> 100", "unit": "µM"}, {"measurement": "TGI", "setting": "[20]", "result": "> 100", "unit": "µM"}, {"measurement": "TGI", "setting": "[21]", "result": "> 100", "unit": "µM"}, {"measurement": "TGI", "setting": "[22]", "result": 91.3, "unit": "µM"}, {"measurement": "TGI", "setting": "[23]", "result": "> 100", "unit": "µM"}, {"measurement": "TGI", "setting": "[24]", "result": "> 100", "unit": "µM"}, {"measurement": "TGI", "setting": "[25]", "result": "> 100", "unit": "µM"}, {"measurement": "TGI", "setting": "[46]", "result": "> 100", "unit": "µM"}, {"measurement": "TGI", "setting": "[26]", "result": "> 100", "unit": "µM"}, {"measurement": "TGI", "setting": "[47]", "result": 55.2, "unit": "µM"}, {"measurement": "TGI", "setting": "[27]", "result": 2.63, "unit": "µM"}, {"measurement": "TGI", "setting": "[48]", "result": "> 100", "unit": "µM"}, {"measurement": "TGI", "setting": "[49]", "result": "> 100", "unit": "µM"}, {"measurement": "TGI", "setting": "[28]", "result": "> 100", "unit": "µM"}, {"measurement": "TGI", "setting": "[31]", "result": "> 100", "unit": "µM"}, {"measurement": "TGI", "setting": "[50]", "result": "> 100", "unit": "µM"}, {"measurement": "TGI", "setting": "[51]", "result": 89.7, "unit": "µM"}, {"measurement": "TGI", "setting": "[32]", "result": "> 100", "unit": "µM"}, {"measurement": "TGI", "setting": "[33]", "result": "> 100", "unit": "µM"}, {"measurement": "TGI", "setting": "[52]", "result": 64.5, "unit": "µM"}, {"measurement": "TGI", "setting": "[35]", "result": "> 100", "unit": "µM"}, {"measurement": "TGI", "setting": "[36]", "result": "> 100", "unit": "µM"}, {"measurement": "TGI", "setting": "[37]", "result": 94.3, "unit": "µM"}, {"measurement": "TGI", "setting": "[53]", "result": "> 100", "unit": "µM"}, {"measurement": "TGI", "setting": "[54]", "result": "> 100", "unit": "µM"}, {"measurement": "TGI", "setting": "[55]", "result": "> 100", "unit": "µM"}]}]}
